# According to patent publication US20250214991A1 (Oncopia Therapeutics, Inc. d/b/a/ SK Life Science Labs, priority 2022, published 2025):
# Columns and labels:
# IKZF2 [1] = biological target: T1, IKZF2 (Homo sapiens (Human), UniProt Q96SW2+Q9UKS7); assay: In vitro IKZF2 FACS Assay in Jurkat cells; assay type: cell-based; details: 24 hrs; for DC50: half maximal degradation concentration; for Dmax: maximal degradation percentage
# Method: In vitro IKZF2 FACS Assay
# DC50, A: <1 nM; B: 1-10 nM; C: 10-100 nM; D: 100-1000 nM; E: >1000 nM. Dmax, A: >80%; B: 60-80%; C: 40-60%; D: 20-40%; E: <20%.
# IKZF2 [2] = biological target: T1, IKZF2; assay: In vitro IKZF2 HiBit Assay (HEK293T Flp-in-HiBiT cells); assay type: cell-based; details: HEK293T Flp-in-HiBiT cells, 6 hrs incubation; for DC50: read-out: IKZF2 HiBit DC50; for Dmax: HEK-293T, read-out: IKZF2 HiBit Dmax (%)
# Method in brief: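 HEK293T Flp-in cells carrying an endogenous N-terminal HiBiT tag on IKZF2 were exposed to compound for 6 h at 0.1% DMSO. The dilution series was 11 doses at 3-fold, diluted from 1 mM. Nano-Glo HiBiT lytic luminescence, normalized to DMSO, gave DC50 for 50% degradation and Dmax across the concentration range, both reported in letter bins.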
# IKZF1 = IKZF1 (Homo sapiens (Human), UniProt Q13422+Q96SW2); assay: In vitro IKZF1 HiBit Assay (HEK293T Flp-in-HiBiT-IKZF1 stable cell line); assay type: cell-based; details: HEK293T Flp-in-HiBiT-IKZF1 stable cell line, 6 hrs incubation; for DC50: read-out: IKZF1 HiBit DC50; for Dmax: HEK-293T, read-out: IKZF1 HiBit Dmax (%)
# Method in brief: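 HEK293T Flp-in cells carrying N-terminal HiBiT-tagged IKZF1 were exposed to compound (0.1% DMSO) for 6 h at 3000 cells/well. HiBiT luminescence was read after lytic LgBiT detection. DC50 and Dmax were taken from DMSO-normalized dose-response curves.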
# CRBN/DDB1 = CRBN/DDB1 (Homo sapiens (Human), UniProt Q96SW2); assay: IC50 measurements for binding to CRBN/DDB1 (HTRF); details: His tagged CRBN+DDB, Cy5-labeled Thalidomide probe, one hour
# Method in brief: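 HTRF competition binding with 2 nM His-tagged CRBN-DDB1 complex, 60 nM Cy5-thalidomide probe and 0.4 nM anti-His Tb cryptate in 50 mM HEPES pH 7.5, 1 mM TCEP, 0.01% Brij-35, 50 mM NaCl, 0.1% BSA. Read after 1 h at room temperature; IC50 from four-parameter dose-response fit.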
# CRBN/DDB1, sequence (Q96SW2 whole entry, species assumed): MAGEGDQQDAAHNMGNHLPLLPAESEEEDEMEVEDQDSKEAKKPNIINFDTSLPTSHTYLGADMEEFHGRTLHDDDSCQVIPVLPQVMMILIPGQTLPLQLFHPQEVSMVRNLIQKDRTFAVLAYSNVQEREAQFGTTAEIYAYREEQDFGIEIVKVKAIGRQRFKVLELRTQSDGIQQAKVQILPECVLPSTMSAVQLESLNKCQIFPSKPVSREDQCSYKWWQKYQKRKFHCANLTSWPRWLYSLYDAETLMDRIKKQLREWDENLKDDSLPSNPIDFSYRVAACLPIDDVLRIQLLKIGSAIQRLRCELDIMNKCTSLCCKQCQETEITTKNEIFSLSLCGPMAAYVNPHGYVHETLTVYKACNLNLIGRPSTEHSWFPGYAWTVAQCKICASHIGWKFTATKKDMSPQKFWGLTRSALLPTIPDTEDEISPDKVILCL
# CRBN/DDB1, sequence (Q16531 whole entry partner, species assumed): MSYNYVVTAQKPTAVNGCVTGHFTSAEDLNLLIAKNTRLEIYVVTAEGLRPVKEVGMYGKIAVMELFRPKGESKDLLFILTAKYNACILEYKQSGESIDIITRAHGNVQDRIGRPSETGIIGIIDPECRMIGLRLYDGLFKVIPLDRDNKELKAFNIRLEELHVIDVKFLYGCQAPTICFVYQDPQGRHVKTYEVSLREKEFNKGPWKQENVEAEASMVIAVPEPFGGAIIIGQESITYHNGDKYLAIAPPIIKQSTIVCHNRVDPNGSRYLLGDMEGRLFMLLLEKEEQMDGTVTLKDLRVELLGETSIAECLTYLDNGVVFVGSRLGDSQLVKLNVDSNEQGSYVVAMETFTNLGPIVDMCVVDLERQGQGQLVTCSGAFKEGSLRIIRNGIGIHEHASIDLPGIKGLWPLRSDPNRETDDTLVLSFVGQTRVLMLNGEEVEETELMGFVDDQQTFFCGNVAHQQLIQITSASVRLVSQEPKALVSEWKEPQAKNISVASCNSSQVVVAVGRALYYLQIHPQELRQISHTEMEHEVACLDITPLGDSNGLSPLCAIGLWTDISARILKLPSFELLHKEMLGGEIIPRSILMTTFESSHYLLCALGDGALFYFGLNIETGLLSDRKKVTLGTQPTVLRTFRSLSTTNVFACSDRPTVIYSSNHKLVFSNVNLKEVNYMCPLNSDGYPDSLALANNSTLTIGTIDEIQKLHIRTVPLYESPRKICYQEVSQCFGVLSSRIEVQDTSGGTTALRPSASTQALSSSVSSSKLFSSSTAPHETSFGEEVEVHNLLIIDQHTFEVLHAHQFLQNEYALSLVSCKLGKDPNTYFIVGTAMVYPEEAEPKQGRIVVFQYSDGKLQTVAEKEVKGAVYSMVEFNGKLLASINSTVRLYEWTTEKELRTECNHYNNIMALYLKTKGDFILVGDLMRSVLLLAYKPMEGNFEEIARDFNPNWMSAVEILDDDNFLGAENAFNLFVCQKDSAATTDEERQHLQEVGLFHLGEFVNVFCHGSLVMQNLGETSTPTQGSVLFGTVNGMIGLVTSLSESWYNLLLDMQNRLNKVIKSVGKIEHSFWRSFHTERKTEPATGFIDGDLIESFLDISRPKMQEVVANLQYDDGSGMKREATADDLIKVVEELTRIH
# T1 sequence (Q9UKS7 whole entry): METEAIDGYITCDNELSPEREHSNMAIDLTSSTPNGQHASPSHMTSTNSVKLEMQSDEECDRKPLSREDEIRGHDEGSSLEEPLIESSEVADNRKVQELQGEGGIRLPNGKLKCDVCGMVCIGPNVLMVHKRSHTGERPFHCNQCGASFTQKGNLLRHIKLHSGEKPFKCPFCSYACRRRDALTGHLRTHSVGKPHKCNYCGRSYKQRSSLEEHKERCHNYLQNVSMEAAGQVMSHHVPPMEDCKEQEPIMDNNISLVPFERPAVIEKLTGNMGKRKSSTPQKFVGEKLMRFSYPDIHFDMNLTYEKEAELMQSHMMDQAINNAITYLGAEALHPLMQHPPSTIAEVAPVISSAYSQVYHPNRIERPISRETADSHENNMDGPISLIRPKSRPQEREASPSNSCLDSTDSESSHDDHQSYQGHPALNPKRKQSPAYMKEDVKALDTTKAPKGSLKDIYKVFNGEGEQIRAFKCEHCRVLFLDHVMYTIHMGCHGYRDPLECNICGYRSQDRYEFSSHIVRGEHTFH
# T1 sequence (Q96SW2 whole entry): as the sequence (Q96SW2 whole entry, species assumed) above
# T1 sequence (Q16531 2-1140 partner): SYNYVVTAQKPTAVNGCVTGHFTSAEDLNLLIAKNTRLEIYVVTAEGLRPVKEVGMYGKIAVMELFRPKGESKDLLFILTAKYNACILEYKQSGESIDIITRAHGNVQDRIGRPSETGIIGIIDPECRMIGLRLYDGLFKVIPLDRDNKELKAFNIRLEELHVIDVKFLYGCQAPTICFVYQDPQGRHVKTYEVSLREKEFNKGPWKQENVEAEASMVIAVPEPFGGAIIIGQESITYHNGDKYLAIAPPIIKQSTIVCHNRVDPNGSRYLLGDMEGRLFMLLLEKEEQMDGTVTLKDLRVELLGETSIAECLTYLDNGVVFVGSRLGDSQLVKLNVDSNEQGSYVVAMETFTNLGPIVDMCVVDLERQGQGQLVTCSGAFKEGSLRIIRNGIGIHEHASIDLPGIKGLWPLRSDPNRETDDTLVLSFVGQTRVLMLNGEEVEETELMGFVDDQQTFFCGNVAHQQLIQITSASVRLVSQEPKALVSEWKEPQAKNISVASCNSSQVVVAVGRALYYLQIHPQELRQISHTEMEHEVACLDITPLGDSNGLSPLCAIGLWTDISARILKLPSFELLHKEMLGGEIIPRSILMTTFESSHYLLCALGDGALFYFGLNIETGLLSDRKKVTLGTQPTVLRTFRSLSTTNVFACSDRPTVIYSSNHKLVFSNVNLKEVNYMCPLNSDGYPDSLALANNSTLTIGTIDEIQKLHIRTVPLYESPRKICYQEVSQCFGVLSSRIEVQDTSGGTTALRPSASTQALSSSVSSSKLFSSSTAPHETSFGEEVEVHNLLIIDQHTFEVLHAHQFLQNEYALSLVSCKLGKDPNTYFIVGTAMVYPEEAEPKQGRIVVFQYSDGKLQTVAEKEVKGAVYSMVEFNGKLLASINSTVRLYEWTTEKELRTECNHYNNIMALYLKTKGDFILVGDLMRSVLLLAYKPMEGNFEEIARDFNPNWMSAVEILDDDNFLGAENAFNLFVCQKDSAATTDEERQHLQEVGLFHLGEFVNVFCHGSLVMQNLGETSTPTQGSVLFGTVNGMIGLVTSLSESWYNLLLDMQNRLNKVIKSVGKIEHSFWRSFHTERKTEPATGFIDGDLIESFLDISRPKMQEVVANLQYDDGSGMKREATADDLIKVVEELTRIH
# IKZF1, sequence (Q13422 whole entry): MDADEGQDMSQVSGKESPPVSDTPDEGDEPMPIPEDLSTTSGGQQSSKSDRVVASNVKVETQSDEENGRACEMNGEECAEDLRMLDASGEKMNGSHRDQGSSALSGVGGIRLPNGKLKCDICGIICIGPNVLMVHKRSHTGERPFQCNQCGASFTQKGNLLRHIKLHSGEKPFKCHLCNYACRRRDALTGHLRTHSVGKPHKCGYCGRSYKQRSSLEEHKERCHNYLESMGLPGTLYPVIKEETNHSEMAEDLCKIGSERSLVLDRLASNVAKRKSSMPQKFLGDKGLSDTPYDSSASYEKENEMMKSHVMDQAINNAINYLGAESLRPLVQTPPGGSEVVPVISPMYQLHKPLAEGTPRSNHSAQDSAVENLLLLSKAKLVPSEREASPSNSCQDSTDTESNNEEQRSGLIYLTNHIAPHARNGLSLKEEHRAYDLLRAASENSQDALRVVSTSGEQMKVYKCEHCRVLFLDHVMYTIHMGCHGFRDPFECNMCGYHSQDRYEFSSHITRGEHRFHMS
# IKZF1, sequence (Q96SW2 whole entry): as the sequence (Q96SW2 whole entry, species assumed) above
# IKZF1, sequence (Q16531 2-1140 partner): as the sequence (Q16531 2-1140 partner) above
Structure (SMILES),DC50 (IKZF2 [1]) [µM],Dmax (IKZF2 [1]) [%],DC50 (IKZF2 [2]) [µM],Dmax (IKZF2 [2]) [%],DC50 (IKZF1) [µM],Dmax (IKZF1) [%],IC50 (CRBN/DDB1) [µM]
"O=C1CCC(N2Cc3cc(-c4ncc5cc(CN6CCCC6)ccn45)ccc3C2=O)C(=O)N1 (stereo not drawn) [Example 52, 3-(1-oxo-5-(7-(pyrrolidin-1-ylmethyl)imidazo[1,5-a]pyridin-3-yl)isoindolin-2-yl) piperidine-2,6-dione]",0.01 to 0.1,40 to 60,0.001 to 0.01,60 to 80,> 10,< 20,0.5 to 1
"O=C1CCC(N2Cc3cc(-c4ccc(CN5CCCC5)c5cncn45)ccc3C2=O)C(=O)N1 (stereo not drawn) [Example 54, 3-(1-oxo-5-(8-(pyrrolidin-1-ylmethyl)imidazo[1,5-a]pyridin-5-yl)isoindolin-2-yl) piperidine-2,6-dione]",< 0.001,> 80,1 to 10,< 20,> 10,< 20,1 to 5
"Cn1ccc2c(CN3CCCC3)cc(-c3ccc4c(c3)CN(C3CCC(=O)NC3=O)C4=O)nc21 (stereo not drawn) [Example 55, 3-(5-(1-methyl-4-(pyrrolidin-1-ylmethyl)-1H-pyrrolo[2,3-b]pyridin-6-yl)-1-oxoisoindolin-2-yl) piperidine-2,6-dione]",< 0.001,> 80,< 0.001,> 80,> 10,20 to 40,0.1 to 0.5
"Cn1ccc2c(CN3CCC3)cc(-c3ccc4c(c3)CN(C3CCC(=O)NC3=O)C4=O)nc21 (stereo not drawn) [Example 56, 3-(5-(4-(azetidin-1-ylmethyl)-1-methyl-1H-pyrrolo[2,3-b]pyridin-6-yl)-1-oxoisoindolin-2-yl) piperidine-2,6-dione]",0.001 to 0.01,60 to 80,< 0.001,> 80,> 10,20 to 40,< 0.1
"O=C1CCC(N2Cc3cc(-c4cc(CN5CCCC5)c5cn[nH]c5n4)ccc3C2=O)C(=O)N1 (stereo not drawn) [Example 105, 3-(1-oxo-5-(4-(pyrrolidin-1-ylmethyl)-1H-pyrazolo[3,4-b]pyridin-6-yl)isoindolin-2-yl) piperidine-2,6-dione]",0.001 to 0.01,> 80,0.001 to 0.01,> 80,1 to 10,20 to 40,0.5 to 1
"O=C1CCC(N2Cc3cc(-c4cc(CN5CCC(F)CC5)c5cc[nH]c5n4)ccc3C2=O)C(=O)N1 (stereo not drawn) [Example 116, 3-(5-(4-((4-fluoropiperidin-1-yl)methyl)-1H-pyrrolo[2,3-b]pyridin-6-yl)-1-oxoisoindolin-2-yl) piperidine-2,6-dione]",0.001 to 0.01,> 80,< 0.001,> 80,0.001 to 0.01,20 to 40,0.1 to 0.5
"O=C1CCC(N2Cc3cc(-c4cc(CN5CC(F)C5)c5cc[nH]c5n4)ccc3C2=O)C(=O)N1 (stereo not drawn) [Example 117, 3-(5-(4-((3-fluoroazetidin-1-yl)methyl)-1H-pyrrolo[2,3-b]pyridin-6-yl)-1-oxoisoindolin-2-yl) piperidine-2,6-dione]",0.001 to 0.01,> 80,0.001 to 0.01,> 80,> 10,< 20,0.1 to 0.5
"O=C1CCC(N2Cc3cc(-c4cc(CN5CCCC5)c5ccn(C6CC6)c5n4)ccc3C2=O)C(=O)N1 (stereo not drawn) [Example 119, 3-(5-(1-cyclopropyl-4-(pyrrolidin-1-ylmethyl)-1H-pyrrolo[2,3-b]pyridin-6-yl)-1-oxoisoindolin-2-yl) piperidine-2,6-dione]",0.001 to 0.01,> 80,< 0.001,> 80,1 to 10,20 to 40,1 to 5
"O=C1CCC(N2Cc3cc(-c4cc(CN5CC6COCC(C6)C5)c5cc[nH]c5n4)ccc3C2=O)C(=O)N1 (stereo not drawn) [Example 121, 3-(5-(4-((3-oxa-7-azabicyclo[3.3.1]nonan-7-yl)methyl)-1H-pyrrolo[2,3-b]pyridin-6-yl)-1-oxoisoindolin-2-yl) piperidine-2,6-dio]",0.01 to 0.1,> 80,0.001 to 0.01,> 80,> 10,< 20,1 to 5
"O=C1CCC(N2Cc3cc(-c4cc(CN5CCCC5)c5ccn(C6CCC6)c5n4)ccc3C2=O)C(=O)N1 (stereo not drawn) [Example 128, 3-(5-(1-cyclobutyl-4-(pyrrolidin-1-ylmethyl)-1H-pyrrolo[2,3-b]pyridin-6-yl)-1-oxoisoindolin-2-yl) piperidine-2,6-dione]",0.001 to 0.01,> 80,< 0.001,> 80,0.01 to 0.1,20 to 40,0.1 to 0.5
"O=C1CCC(N2Cc3cc(-c4cc(CN5CCCC5)c5ccn(C6COC6)c5n4)ccc3C2=O)C(=O)N1 (stereo not drawn) [Example 129, 3-(5-(1-(oxetan-3-yl)-4-(pyrrolidin-1-ylmethyl)-1H-pyrrolo[2,3-b]pyridin-6-yl)-1-oxoisoindolin-2-yl) piperidine-2,6-dione]",0.001 to 0.01,> 80,< 0.001,> 80,0.01 to 0.1,20 to 40,0.1 to 0.5
"O=C1CCC(N2Cc3cc(-c4cc(CN5CCC(O)C5)c5ccn(C6COC6)c5n4)ccc3C2=O)C(=O)N1 (stereo not drawn) [Example 158, 3-(5-(4-((3-hydroxypyrrolidin-1-yl)methyl)-1-(oxetan-3-yl)-1H-pyrrolo[2,3-b]pyridin-6-yl)-1-oxoisoindolin-2-yl) piperidine-2,6-dione]",0.01 to 0.1,> 80,0.01 to 0.1,60 to 80,> 10,< 20,0.1 to 0.5
"O=C1CCC(N2Cc3cc(-c4cc(CN5CC(F)C5)c5ccn(C6COC6)c5n4)ccc3C2=O)C(=O)N1 (stereo not drawn) [Example 161, 3-(5-(4-((3-fluoroazetidin-1-yl)methyl)-1-(oxetan-3-yl)-1H-pyrrolo[2,3-b]pyridin-6-yl)-1-oxoisoindolin-2-yl) piperidine-2,6-dione]",0.01 to 0.1,60 to 80,0.001 to 0.01,60 to 80,> 10,< 20,0.1 to 0.5
"O=C1CCC(N2Cc3cc(-c4cc(CN5CCC(O)CC5)c5ccn(C6COC6)c5n4)ccc3C2=O)C(=O)N1 (stereo not drawn) [Example 162, 3-(5-(4-((4-hydroxypiperidin-1-yl)methyl)-1-(oxetan-3-yl)-1H-pyrrolo[2,3-b]pyridin-6-yl)-1-oxoisoindolin-2-yl) piperidine-2,6-dione]",0.01 to 0.1,> 80,0.01 to 0.1,60 to 80,0.1 to 1,20 to 40,0.1 to 0.5
"O=C1CCC(N2Cc3cc(-c4cc(CN5CCC(CO)CC5)c5ccn(C6COC6)c5n4)ccc3C2=O)C(=O)N1 (stereo not drawn) [Example 163, 3-(5-(4-((4-(hydroxymethyl)piperidin-1-yl)methyl)-1-(oxetan-3-yl)-1H-pyrrolo[2,3-b]pyridin-6-yl)-1-oxoisoindolin-2-yl) piperidine-2,6-dione]",0.001 to 0.01,> 80,0.001 to 0.01,60 to 80,0.1 to 1,20 to 40,0.1 to 0.5
"O=C1CCC(N2Cc3cc(-c4cc(CN5CCC(CO)C5)c5ccn(C6COC6)c5n4)ccc3C2=O)C(=O)N1 (stereo not drawn) [Example 164, 3-(5-(4-((3-(hydroxymethyl)pyrrolidin-1-yl)methyl)-1-(oxetan-3-yl)-1H-pyrrolo[2,3-b]pyridin-6-yl)-1-oxoisoindolin-2-yl) piperidine-2,6-dione]",0.01 to 0.1,> 80,0.01 to 0.1,60 to 80,0.1 to 1,20 to 40,0.1 to 0.5
"O=C1CCC(N2Cc3cc(-c4cc(CN5CCCC5)c5ccn(C6CCOC6)c5n4)ccc3C2=O)C(=O)N1 (stereo not drawn) [Example 170, 3-(1-oxo-5-(4-(pyrrolidin-1-ylmethyl)-1-(tetrahydrofuran-3-yl)-1H-pyrrolo[2,3-b]pyridin-6-yl)isoindolin-2-yl) piperidine-2,6-dione]",0.01 to 0.1,60 to 80,0.001 to 0.01,60 to 80,> 10,< 20,0.5 to 1
"O=C1CCC(N2Cc3cc(-c4cc(CN5CCCC5)c5ccn(C6CS(=O)(=O)C6)c5n4)ccc3C2=O)C(=O)N1 (stereo not drawn) [Example 176, 3-(5-(1-(1,1-dioxidothietan-3-yl)-4-(pyrrolidin-1-ylmethyl)-1H-pyrrolo[2,3-b]pyridin-6-yl)-1-oxoisoindolin-2-yl) piperidine-2,6-dione]",0.001 to 0.01,60 to 80,0.001 to 0.01,> 80,0.01 to 0.1,20 to 40,0.5 to 1
